According to patent US11027029B2, “Peptide thiourea derivative, radioisotope labeled compound containing same, and pharmaceutical composition containing same as active ingredient for treating or diagnosing prostate cancer” (CELLBION CO., LTD, priority 2015, dated 2021):

Biological target: T1, PSMA positive 22Rv1 cells (Homo sapiens, UniProt Q04609)
T1 construct: endogenous in cells; host or cells: 22Rv1 prostate cancer cells
Experiment: In vitro competitive inhibition cell binding test against I-125-MIP-1072
Conditions: 1.85 kBq I-125-MIP-1072, 1 hour, nonlinear regression analysis, read-out: IC50 (inhibition of binding between 22Rv1 cells and I-125-MIP-1072)
Procedure: To perform in vitro competitive inhibition cell binding test of Ga-NOTA-SCN-GUL, the following experiment was conducted.
The PSMA positive prostate cancer cell line 22Rv1 was loaded in a 24-well plate at the density of 2×10^5 cells/well, followed by culture in a 37[…] 5% CO2 incubator for 24 hours. Ga-NOTA-SCN-GUL prepared in Example 2 was diluted 2-fold serially with the cell culture medium containing 0.5% bovine serum albumin. The diluted sample was added to the cultured cells (0.5 mL/well), to which 1.85 kBq (S)-2-(3-((S)-1-carboxy-5-((4-iodobenzyl)amino)pentyl)ureido)pentanedioic acid (I-125-MIP-1072) was added (0.5 mL/well). After well mixed, the mixture was cultured in a 37[…] 5% CO2 incubator for 1 hour. The culture medium was discarded, and the cells were washed with fresh medium twice, to which 0.5% sodium dodecyl sulfate (SDS) dissolved in PBS was added (1 mL/well). The mixture was gently shaken for complete dissolving, and then loaded in a 5 mL disposable plastic test tube. Then, the radioactivity was measured with a gamma counter.

T1 sequence (Q04609 whole entry): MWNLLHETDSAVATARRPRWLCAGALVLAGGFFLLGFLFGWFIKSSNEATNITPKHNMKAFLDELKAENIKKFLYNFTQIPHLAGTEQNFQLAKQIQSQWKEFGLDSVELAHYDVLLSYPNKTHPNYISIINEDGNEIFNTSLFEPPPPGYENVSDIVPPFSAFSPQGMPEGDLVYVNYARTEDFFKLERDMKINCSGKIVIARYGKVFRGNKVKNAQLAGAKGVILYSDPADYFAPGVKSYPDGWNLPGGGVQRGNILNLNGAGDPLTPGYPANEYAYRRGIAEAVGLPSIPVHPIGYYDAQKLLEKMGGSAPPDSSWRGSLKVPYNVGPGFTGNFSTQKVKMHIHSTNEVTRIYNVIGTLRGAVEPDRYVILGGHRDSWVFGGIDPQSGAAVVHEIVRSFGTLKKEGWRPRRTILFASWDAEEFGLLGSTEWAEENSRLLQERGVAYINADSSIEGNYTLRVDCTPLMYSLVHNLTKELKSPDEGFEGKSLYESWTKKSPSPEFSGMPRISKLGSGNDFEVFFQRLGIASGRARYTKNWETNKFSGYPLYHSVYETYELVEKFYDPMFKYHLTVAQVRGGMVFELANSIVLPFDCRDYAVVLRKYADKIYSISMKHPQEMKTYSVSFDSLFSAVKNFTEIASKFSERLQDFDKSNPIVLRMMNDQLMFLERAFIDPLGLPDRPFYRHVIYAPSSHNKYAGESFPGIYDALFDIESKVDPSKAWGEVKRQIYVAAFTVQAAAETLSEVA

Work on `O=C(O)CCC(NC(=O)NC(CCCCNC(=S)Nc1ccc(CC2CN3CCN4CCN2CC(=O)[O][Ga]([O]C(=O)C4)[O]C(=O)C3)cc1)C(=O)O)C(=O)O` (stereo not shown) [Example 2] yielded an IC50 of 18.3 nM.
